From US8686143B2, “Compounds useful as inhibitors of Janus kinases” (Vertex Pharmaceuticals Incorporated, priority 2007, dated 2014)

Biological target: T1, JAK3 (Homo sapiens, UniProt P52333)
T1 sequence (P52333 1-1124): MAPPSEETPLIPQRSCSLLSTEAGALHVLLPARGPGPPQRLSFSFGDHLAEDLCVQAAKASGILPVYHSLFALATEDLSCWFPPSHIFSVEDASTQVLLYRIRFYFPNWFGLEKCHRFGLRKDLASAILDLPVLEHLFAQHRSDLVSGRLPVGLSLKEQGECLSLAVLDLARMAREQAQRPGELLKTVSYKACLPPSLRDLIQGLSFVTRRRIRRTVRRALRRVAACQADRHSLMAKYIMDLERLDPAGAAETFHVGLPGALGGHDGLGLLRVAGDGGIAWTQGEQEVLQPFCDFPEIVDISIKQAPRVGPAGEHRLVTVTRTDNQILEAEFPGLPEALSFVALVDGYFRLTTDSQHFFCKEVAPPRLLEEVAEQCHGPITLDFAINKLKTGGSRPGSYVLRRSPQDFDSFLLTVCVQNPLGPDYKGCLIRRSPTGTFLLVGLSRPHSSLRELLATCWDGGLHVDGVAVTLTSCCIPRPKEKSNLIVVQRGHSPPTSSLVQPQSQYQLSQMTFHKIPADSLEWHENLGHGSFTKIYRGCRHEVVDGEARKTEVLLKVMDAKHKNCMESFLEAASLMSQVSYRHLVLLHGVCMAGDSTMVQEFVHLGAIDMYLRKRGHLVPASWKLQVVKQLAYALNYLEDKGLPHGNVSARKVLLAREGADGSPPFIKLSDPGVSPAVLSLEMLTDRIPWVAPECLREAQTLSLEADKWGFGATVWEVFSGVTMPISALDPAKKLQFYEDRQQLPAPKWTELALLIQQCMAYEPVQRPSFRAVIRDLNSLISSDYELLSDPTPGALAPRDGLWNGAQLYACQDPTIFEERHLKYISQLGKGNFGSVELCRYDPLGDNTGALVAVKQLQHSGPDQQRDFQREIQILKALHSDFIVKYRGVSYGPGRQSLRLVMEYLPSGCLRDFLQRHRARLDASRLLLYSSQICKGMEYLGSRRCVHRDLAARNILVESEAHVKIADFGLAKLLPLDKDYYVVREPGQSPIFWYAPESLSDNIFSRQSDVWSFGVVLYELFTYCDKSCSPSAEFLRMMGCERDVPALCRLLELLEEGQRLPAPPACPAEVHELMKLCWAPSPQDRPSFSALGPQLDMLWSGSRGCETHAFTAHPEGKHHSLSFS
Assay: JAK3 Inhibition Assay (33P incorporation into poly(Glu)4Tyr)
Assay type: biochemical
Conditions: for Ki: 1 nM JAK3, 5 μM ATP, 1 μM poly(Glu)4Tyr, 25° C.
Description: Compounds were screened for their ability to inhibit JAK3 using the assay shown below. Reactions were carried out in a kinase buffer containing 100 mM HEPES (pH 7.4), 1 mM DTT, 10 mM MgCl2, 25 mM NaCl, and 0.01% BSA. Substrate concentrations in the assay were 5 μM ATP (200 uCi/μmole ATP) and 1 μM poly(Glu)4Tyr. Reactions were carried out at 25° C. and 1 nM JAK3.
To each well of a 96 well polycarbonate plate was added 1.5 μl of a candidate JAK3 inhibitor along with 50 μlof kinase buffer containing 2 μM poly(Glu)4Tyr and 10 μM ATP. This was then mixed and 50 μl of kinase buffer containing 2 nM JAK3 enzyme was added to start the reaction. After 20 minutes at room temperature (25° C.), the reaction was stopped with 50 μl of 20% trichloroacetic acid (TCA) that also contained 0.4 mM ATP. The entire contents of each well were then transferred to a 96 well glass fiber filter plate using a TomTek Cell Harvester. After washing, 60 μl of scintillation fluid was added and ^33P incorporation detected on a Perkin Elmer TopCount.

Ki [µM] | inhibition of JAK3 at concentrations of 50 μM | SMILES
1 to 10 | – | CC(C)[C@@H](Nc1ccnc(-c2c[nH]c(C(=O)NCc3ccccc3)c2)n1)C(=O)NCC(F)(F)F [Compound 110]
– | did not inhibit | CC(C)NC(=O)c1cc(-c2nccc(N[C@@H](C(=O)NCC(F)(F)F)C(C)C)n2)c[nH]1 [Compound 111]
1 to 10 | – | CC(C)[C@@H](Nc1ccnc(-c2c[nH]c(C(=O)NCC3CC3)c2)n1)C(=O)NCC(F)(F)F [Compound 112]
1 to 10 | – | CC(C)[C@@H](Nc1ccnc(-c2c[nH]c(C(=O)N3CCCC3)c2)n1)C(=O)NCC(F)(F)F [Compound 113]
≤ 1 | – | CC(C)[C@@H](Nc1ccnc(-c2c[nH]c(C(=O)N3CC=CC3)c2)n1)C(=O)NCC(F)(F)F [Compound 114]
10 to 50 | – | CNC(=O)c1cc(-c2ncc(F)c(N3CCC[C@@H]3C(=O)NCC(F)(F)F)n2)c[nH]1 [Compound 115]
10 to 50 | – | O=C(NCc1ccccc1)c1cc(-c2ncc(F)c(N3CCC[C@@H]3C(=O)NCC(F)(F)F)n2)c[nH]1 [Compound 116]
– | did not inhibit | CC(C)NC(=O)c1cc(-c2ncc(F)c(N3CCC[C@@H]3C(=O)NCC(F)(F)F)n2)c[nH]1 [Compound 117]
10 to 50 | – | O=C(NCC1CC1)c1cc(-c2ncc(F)c(N3CCC[C@@H]3C(=O)NCC(F)(F)F)n2)c[nH]1 [Compound 118]
1 to 10 | – | O=C(NCC(F)(F)F)[C@H]1CCCN1c1nc(-c2c[nH]c(C(=O)N3CCCC3)c2)ncc1F [Compound 119]
≤ 1 | – | O=C(NCC(F)(F)F)[C@H]1CCCN1c1nc(-c2c[nH]c(C(=O)N3CC=CC3)c2)ncc1F [Compound 120]
1 to 10 | – | O=C(NCc1ccccc1)c1cc(-c2nccc(N3CCC[C@@H]3C(=O)NCC(F)(F)F)n2)c[nH]1 [Compound 121]
– | did not inhibit | CC(C)NC(=O)c1cc(-c2nccc(N3CCC[C@@H]3C(=O)NCC(F)(F)F)n2)c[nH]1 [Compound 122]
≤ 1 | – | CC(C)(Nc1nc(-c2ccc(O)cc2)ncc1F)C(=O)NCC(F)(F)F [Compound 123]
– | did not inhibit | COc1ccc(-c2ncc(F)c(NC(C)(C)C(=O)NCC(F)(F)F)n2)cc1 [Compound 124]
– | did not inhibit | CC(C)(Nc1nc(-c2ccc3c(c2)OCCO3)ncc1F)C(=O)NCC(F)(F)F [Compound 125]
10 to 50 | – | CC(C)[C@@H](Nc1nc(-c2c[nH]c(C(=O)NC3CC3)c2)ncc1F)C(=O)NCC(F)(F)F [Compound 126]
– | did not inhibit | O=C(O)c1cc(-c2ncc(F)c(N3CCC[C@@H]3C(=O)NCC(F)(F)F)n2)c[nH]1 [Compound 127]
– | did not inhibit | CC(C)(Nc1ccnc(-c2c[nH]c(C(=O)O)c2)n1)C(=O)NCC(F)(F)F [Compound 128]
10 to 50 | – | CN(C)C(=O)c1cc(-c2ncc(F)c(N3CCC[C@@H]3C(=O)NCC(F)(F)F)n2)c[nH]1 [Compound 129]
1 to 10 | – | O=C(NCC(F)(F)F)[C@H]1CCCN1c1ccnc(-c2c[nH]c(C(=O)N3CCCC3)c2)n1 [Compound 130]
≤ 1 | – | CN(C)C(=O)c1cc(-c2nccc(NC(C)(C)C(=O)NCC(F)(F)F)n2)c[nH]1 [Compound 132]
1 to 10 | – | CC(C)(Nc1nc(-c2c[nH]c(C(=O)O)c2)ncc1F)C(=O)NCC(F)(F)F [Compound 133]
– | did not inhibit | CC(C)[C@@H](Nc1ccnc(-c2c[nH]c(C(=O)O)c2)n1)C(=O)NCC(F)(F)F [Compound 134]
10 to 50 | – | CC(C)[C@@H](Nc1ccnc(-c2c[nH]c(=O)c(N)c2)n1)C(=O)NCC(F)(F)F [Compound 135]
1 to 10 | – | CC(C)(Nc1ccnc(-c2c[nH]c(=O)c(N)c2)n1)C(=O)NCC(F)(F)F [Compound 136]
10 to 50 | – | CC(C)[C@@H](Nc1nc(-c2c[nH]c(=O)c(N)c2)ncc1F)C(=O)NCC(F)(F)F [Compound 137]

Ki [µM] | inhibition of JAK3 at concentrations of 50 μM | SMILES
– | did not inhibit | Nc1cc(-c2ncc(F)c(N3CCC[C@@H]3C(=O)NCC(F)(F)F)n2)c[nH]c1=O [Compound 138]
≤ 1 | – | O=C(NCC(F)(F)F)[C@H]1CCCN1c1ccnc(-c2c[nH]c(C(=O)N3CC=CC3)c2)n1 [Compound 139]
≤ 1 | – | CC(C)(Nc1nc(-c2ccc3ncsc3c2)ncc1F)C(=O)NCC(F)(F)F [Compound 140]
1 to 10 | – | O=C(NCC(F)(F)F)[C@H]1CCCN1c1nc(-c2ccc3ncsc3c2)ncc1F [Compound 141]
10 to 50 | – | CC(C)[C@@H](Nc1nc(-c2ccc(O)cc2)ncc1F)C(=O)NCC(F)(F)F [Compound 142]
– | did not inhibit | COc1ccc(-c2nccc(N[C@@H](C(=O)NCC(F)(F)F)C(C)C)n2)cc1 [Compound 143]
≤ 1 | – | CC(C)(Nc1ccnc(-c2ccc(O)cc2)n1)C(=O)NCC(F)(F)F [Compound 144]
– | did not inhibit | COc1ccc(-c2ncc(F)c(N[C@@H](C(=O)NCC(F)(F)F)C(C)C)n2)cc1 [Compound 145]
– | did not inhibit | CC(C)[C@@H](Nc1ccnc(-c2ccc3c(c2)OCCO3)n1)C(=O)NCC(F)(F)F [Compound 146]
1 to 10 | – | O=C(NCC(F)(F)F)[C@H]1CCCN1c1ccnc(-c2ccc(O)cc2)n1 [Compound 147]
≤ 1 | – | CC(C)[C@@H](Nc1ccnc(-c2ccc3ncsc3c2)n1)C(=O)NCC(F)(F)F [Compound 148]
– | did not inhibit | COc1ccc(-c2nccc(NC(C)(C)C(=O)NCC(F)(F)F)n2)cc1 [Compound 149]
– | did not inhibit | COc1ccc(-c2nccc(N3CCC[C@@H]3C(=O)NCC(F)(F)F)n2)cc1 [Compound 150]
10 to 50 | – | O=C(NCC(F)(F)F)[C@H]1CCCN1c1nc(-c2ccc(O)cc2)ncc1F [Compound 151]
– | did not inhibit | O=C(NCC(F)(F)F)[C@H]1CCCN1c1nc(-c2ccc3c(c2)OCCO3)ncc1F [Compound 153]
≤ 1 | – | CC(C)(Nc1ccnc(-c2ccc3ncsc3c2)n1)C(=O)NCC(F)(F)F [Compound 154]
≤ 1 | – | O=C(NCC(F)(F)F)[C@H]1CCCN1c1ccnc(-c2ccc3ncsc3c2)n1 [Compound 155]
1 to 10 | – | CC(C)(Nc1nc(-c2c[nH]c3ccc(Cl)cc23)ncc1F)C(=O)NCC(F)(F)F [Compound 156]
– | did not inhibit | O=C(NCC(F)(F)F)[C@H]1CCCN1c1nc(-c2c[nH]c3ccc(Cl)cc23)ncc1F [Compound 157]
1 to 10 | – | CC(C)(Nc1ccnc(-c2c[nH]c3ccc(Cl)cc23)n1)C(=O)NCC(F)(F)F [Compound 158]
10 to 50 | – | O=C(NCC(F)(F)F)[C@H]1CCCN1c1ccnc(-c2c[nH]c3ccc(Cl)cc23)n1 [Compound 159]
– | did not inhibit | CC(C)[C@@H](Nc1nc(-c2c[nH]c3ccc(Cl)cc23)ncc1F)C(=O)NCC(F)(F)F [Compound 160]
10 to 50 | – | CC(C)[C@@H](Nc1ccnc(-c2c[nH]c3ccc(Cl)cc23)n1)C(=O)NCC(F)(F)F [Compound 161]
≤ 1 | – | CC(C)(Nc1nc(-c2ccc3nccnc3c2)ncc1F)C(=O)NCC(F)(F)F [Compound 162]
≤ 1 | – | CC(C)(Nc1ccnc(-c2ccc3nccnc3c2)n1)C(=O)NCC(F)(F)F [Compound 163]
1 to 10 | – | CC(C)[C@@H](Nc1ccnc(-c2ccc3nccnc3c2)n1)C(=O)NCC(F)(F)F [Compound 164]
10 to 50 | – | O=C(NCC(F)(F)F)[C@H]1CCCN1c1nc(-c2ccc3nccnc3c2)ncc1F [Compound 165]
